The values that follow come from ChEMBL document CHEMBL1201862, “PubChem BioAssay data set” (2004).

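Each compound was tested at five concentrations against cells in 96-well plates for 48 hours. GI50 is the concentration that inhibits growth by half.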 The source made the active and inactive calls. No stated cut-off is given here; in the data, active = GI50 up to about 1.1 µM and inactive = higher.

Among the test systems are NCI-H460; COLO 205; DU-145; HCC 2998; UO-31; A549; OVCAR-4; MOLT-4; OVCAR-8; SK-MEL-28; SF-268; T47D; ACHN; OVCAR-3; Hs-578T; SF-539; RPMI-8226; A498; RXF 393; PC-3.
Common to all, as to test: DTP human tumour cell line panel, 48 h

For the compound `N#Cc1ccccc1OCCOc1ccccc1C#N`, the GI50 in the experiment on NCI-H460, in the experiment with COLO 205, in the experiment on DU-145, in the experiment with HCC 2998, in the experiment on UO-31 and with A549 was > 100 µM (inactive) in each case. The GI50 in the experiment with OVCAR-4, with MOLT-4, in the experiment with OVCAR-8, in the experiment on SK-MEL-28, in the experiment on SF-268 and with T47D was > 100 µM (inactive) in each case. Further, the GI50 in the experiment on ACHN is > 100 µM (inactive); in the experiment on OVCAR-3 it was > 100 µM (inactive); in the experiment with Hs-578T it was > 100 µM (inactive); in the experiment with SF-539, 26.1 µM (inactive); in the experiment on RPMI-8226, > 100 µM (inactive); with A498 it was > 100 µM (inactive). Moreover, the GI50 in the experiment with RXF 393 and in the experiment with PC-3 was > 100 µM (inactive) in each case.
Take `N#CC(c1ccccc1)N1CCCN(C(C#N)c2ccccc2)C1c1ccccc1O` (stereo not given): the GI50 with NCI-H460, with COLO 205, in the experiment on DU-145, with HCC 2998, in the experiment on UO-31 and with A549 was > 100 µM (inactive) each time. Also, the GI50 is > 100 µM (inactive) in the experiment on OVCAR-4; 61.1 µM (inactive) in the experiment with MOLT-4; > 100 µM (inactive) in the experiment with OVCAR-8; > 100 µM (inactive) with SK-MEL-28; > 100 µM (inactive) with SF-268; > 100 µM (inactive) in the experiment with T47D. Moreover, the GI50 with ACHN was > 100 µM (inactive); in the experiment with OVCAR-3, 48.3 µM (inactive); in the experiment with Hs-578T, > 100 µM (inactive); in the experiment with SF-539, 52.1 µM (inactive); with RPMI-8226 it was 60.5 µM (inactive); in the experiment with A498, > 100 µM (inactive). Further, the GI50 with RXF 393 and in the experiment with PC-3 was > 100 µM (inactive) each time.
Consider `N#Cc1c(-c2ccccc2)cc(Nc2ccc(Cl)cc2)n2c1nc1ccccc12`, for which the GI50 in the experiment on NCI-H460 was 1.67 µM (inactive); in the experiment with COLO 205, 1.74 µM (inactive); with DU-145 it was 3.45 µM (inactive); in the experiment on HCC 2998, 3.78 µM (inactive); in the experiment with UO-31, 2.49 µM (inactive); in the experiment on A549, 1.71 µM (inactive). The GI50 with OVCAR-4 is 3.23 µM (inactive); in the experiment with MOLT-4 it was 2.34 µM (inactive); in the experiment on OVCAR-8, 2.96 µM (inactive); in the experiment on SK-MEL-28, > 55 µM (inactive); in the experiment on SF-268 it was 3.71 µM (inactive); in the experiment with T47D, 2.71 µM (inactive). For the same compound, the GI50 in the experiment on ACHN is 3.03 µM (inactive); in the experiment on OVCAR-3 it was 1.85 µM (inactive); with Hs-578T it was 1.59 µM (inactive); in the experiment with SF-539, 4.39 µM (inactive); in the experiment on RPMI-8226 it was 1.22 µM (inactive); with A498, 3.71 µM (inactive). Besides, the GI50 was 4.35 µM (inactive) in the experiment on RXF 393 and 2.56 µM (inactive) in the experiment on PC-3.
Consider `Cc1[nH]c2ccccc2c1/C=N/c1ccc(/N=C/c2c(C)[nH]c3ccccc23)cc1`, for which the GI50 is 41.2 µM (inactive) in the experiment with NCI-H460; 12.9 µM (inactive) with COLO 205; 37.4 µM (inactive) in the experiment with DU-145; 36.9 µM (inactive) with HCC 2998; 77.4 µM (inactive) in the experiment on UO-31; 80 µM (inactive) in the experiment with A549. For the same compound, the GI50 in the experiment on OVCAR-4 was 26.4 µM (inactive); with MOLT-4, 18.9 µM (inactive); with OVCAR-8, 29.7 µM (inactive); in the experiment on SK-MEL-28, 97.5 µM (inactive); in the experiment with SF-268, 50 µM (inactive); with T47D, 25.4 µM (inactive). The GI50 in the experiment on ACHN was 49.1 µM (inactive); with OVCAR-3 it was 41 µM (inactive); in the experiment on Hs-578T it was 47 µM (inactive); in the experiment on SF-539, 21.4 µM (inactive); in the experiment with RPMI-8226, 18.3 µM (inactive); in the experiment on A498, 52.1 µM (inactive). The results for the GI50 with RXF 393 and with PC-3 were 53 µM (inactive) and 50.4 µM (inactive), respectively.
Consider `CC[C@]1(O)CC(OC2CC(N(C)C)C(O)C(C)O2)c2c(cc3c(c2O)C(=O)c2c(O)cccc2C3=O)[C@@H]1C(=O)OC` (stereo not given in full), for which the GI50 in the experiment with NCI-H460 is 0.045 µM (active); in the experiment on COLO 205 it was 0.0881 µM (active); with DU-145, 0.675 µM (active); in the experiment with HCC 2998 it was 0.21 µM (active); with UO-31, 0.173 µM (active); in the experiment with A549, 0.136 µM (active). For the same compound, the GI50 is 0.114 µM (active) in the experiment on OVCAR-4; 0.0405 µM (active) in the experiment with MOLT-4; 0.0743 µM (active) in the experiment with OVCAR-8; 0.664 µM (active) in the experiment with SK-MEL-28; 0.12 µM (active) in the experiment on SF-268; 0.649 µM (active) with T47D. Moreover, the GI50 in the experiment on ACHN is 0.0537 µM (active); in the experiment with OVCAR-3 it was 0.493 µM (active); with Hs-578T it was 0.745 µM (active); in the experiment with SF-539, 0.59 µM (active); in the experiment with RPMI-8226, 0.125 µM (active); with A498 it was 0.232 µM (active). Besides, the values for the GI50 in the experiment with RXF 393 and with PC-3 were 0.269 µM (active) and 0.214 µM (active), respectively.
For `COC1=CCC2=C(CCN(C(=O)C3CC3)C2Cc2ccc(OC)c(O)c2)C1` (stereo not given), the GI50 with NCI-H460 was 42 µM (inactive); with COLO 205, 51.5 µM (inactive); in the experiment with DU-145, > 100 µM (inactive); in the experiment on HCC 2998, 35.1 µM (inactive); with UO-31, > 100 µM (inactive); in the experiment with A549, 63.4 µM (inactive). The GI50 was 42.5 µM (inactive) in the experiment on OVCAR-4; 8.67 µM (inactive) with MOLT-4; 34 µM (inactive) in the experiment with OVCAR-8; 31.8 µM (inactive) in the experiment on SK-MEL-28; 51.1 µM (inactive) in the experiment with SF-268; 21 µM (inactive) in the experiment on T47D. Besides, the GI50 in the experiment on ACHN is > 100 µM (inactive); in the experiment with OVCAR-3 it was 45.4 µM (inactive); in the experiment on Hs-578T, 69.2 µM (inactive); in the experiment on SF-539, 67 µM (inactive); in the experiment on RPMI-8226, 34.2 µM (inactive); with A498, 68.5 µM (inactive). For the same compound, the GI50 is 13.5 µM (inactive) with RXF 393 and 35.6 µM (inactive) in the experiment with PC-3.
`CS(=O)(=O)CS(=O)(=O)OCCCl`: the GI50 was 83.6 µM (inactive) in the experiment on NCI-H460; 276 µM (inactive) in the experiment with COLO 205; 199 µM (inactive) with DU-145; 301 µM (inactive) with HCC 2998; 348 µM (inactive) with UO-31; 220 µM (inactive) in the experiment with A549. For the same compound, the GI50 in the experiment with OVCAR-4 was 403 µM (inactive); in the experiment with MOLT-4, 96.2 µM (inactive); in the experiment with OVCAR-8 it was 191 µM (inactive); in the experiment on SK-MEL-28 it was 490 µM (inactive); with SF-268, 47.9 µM (inactive); in the experiment with T47D it was 218 µM (inactive). Further, the GI50 with ACHN is 124 µM (inactive); with OVCAR-3 it was 264 µM (inactive); with Hs-578T it was 272 µM (inactive); in the experiment on SF-539, 50.4 µM (inactive); in the experiment with RPMI-8226, 198 µM (inactive); in the experiment on A498 it was 527 µM (inactive). For the same compound, the results for the GI50 in the experiment with RXF 393 and with PC-3 were 163 µM (inactive) and 348 µM (inactive), respectively.
